PubChem BioAssay (NCI)
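A five-concentration, 48-hour dose response in 96-well plates underlies each endpoint, interpolated linearly between surrounding concentrations. GI50 is the concentration that inhibits growth by half. TGI: total growth inhibition.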

Assays:
Assay in all cases: NCI anticancer screen, dose series, 48 h
MDA-MB-231 breast = test system: MDA-MB-231 breast
SW-620 colon = test system: SW-620 colon
OVCAR-8 ovarian = test system: OVCAR-8 ovarian
TK-10 renal = test system: TK-10 renal
HOP-62 NSCLC = test system: HOP-62 NSCLC
NCI-H226 lung = test system: NCI-H226 lung
UO-31 renal = test system: UO-31 renal
NCI-H522 lung = test system: NCI-H522 lung
IGROV1 ovarian = test system: IGROV1 ovarian
OVCAR-4 ovarian = test system: OVCAR-4 ovarian
HOP-92 NSCLC = test system: HOP-92 NSCLC
U251 CNS = test system: U251 CNS
SR leukemia = test system: SR leukemia
LOX IMVI melanoma = test system: LOX IMVI melanoma
BT-549 breast = test system: BT-549 breast
SK-OV-3 ovarian = test system: SK-OV-3 ovarian
HL-60(TB) leukemia = test system: HL-60(TB) leukemia
HS 578T breast = test system: HS 578T breast
SN12C renal = test system: SN12C renal
K-562 leukemia = test system: K-562 leukemia
UACC-62 melanoma = test system: UACC-62 melanoma
SF-268 CNS = test system: SF-268 CNS
CCRF-CEM leukemia = test system: CCRF-CEM leukemia
NCI-H460 lung = test system: NCI-H460 lung
MALME-3M melanoma = test system: MALME-3M melanoma
HCC-2998 colon = test system: HCC-2998 colon
SK-MEL-28 melanoma = test system: SK-MEL-28 melanoma
A498 renal = test system: A498 renal
ACHN renal = test system: ACHN renal
CAKI-1 renal = test system: CAKI-1 renal
NCI/ADR-RES ovarian = test system: NCI/ADR-RES ovarian
RPMI-8226 leukemia = test system: RPMI-8226 leukemia
SF-539 CNS = test system: SF-539 CNS
MCF7 breast = test system: MCF7 breast
MOLT-4 leukemia = test system: MOLT-4 leukemia
M14 melanoma = test system: M14 melanoma
OVCAR-3 ovarian = test system: OVCAR-3 ovarian
RXF 393 renal = test system: RXF 393 renal
SK-MEL-2 melanoma = test system: SK-MEL-2 melanoma
DU-145 prostate = test system: DU-145 prostate
MDA-MB-435 = test system: MDA-MB-435
A549 NSCLC = test system: A549 NSCLC
UACC-257 melanoma = test system: UACC-257 melanoma
SNB-75 CNS = test system: SNB-75 CNS
SF-295 CNS = test system: SF-295 CNS
HCT-116 colon = test system: HCT-116 colon
HCT-15 colon = test system: HCT-15 colon
OVCAR-5 ovarian = test system: OVCAR-5 ovarian
786-0 renal = test system: 786-0 renal
KM12 colon = test system: KM12 colon
SNB-19 CNS = test system: SNB-19 CNS
SK-MEL-5 melanoma = test system: SK-MEL-5 melanoma
T-47D breast = test system: T-47D breast
HT29 colon = test system: HT29 colon
PC-3 prostate = test system: PC-3 prostate
EKVX NSCLC = test system: EKVX NSCLC

SMILES: Cc1cn(-c2cc(NC(=O)c3cncc(C#Cc4cnc5ccc(OCCCS(C)(=O)=O)nn45)c3)cc(C(F)(F)F)c2)cn1
- GI50 (MDA-MB-231 breast): 0.43 µM
- TGI (MDA-MB-231 breast): > 100 µM
- GI50 (SW-620 colon): 0.462 µM
- TGI (SW-620 colon): > 100 µM
- GI50 (OVCAR-8 ovarian): 0.649 µM
- TGI (OVCAR-8 ovarian): > 100 µM
- GI50 (TK-10 renal): 3.21 µM
- TGI (TK-10 renal): > 100 µM
- GI50 (HOP-62 NSCLC): 1.14 µM
- TGI (HOP-62 NSCLC): > 100 µM
- GI50 (NCI-H226 lung): 0.922 µM
- TGI (NCI-H226 lung): 49.1 µM
- GI50 (UO-31 renal): 3.59 µM
- TGI (UO-31 renal): > 100 µM
- GI50 (NCI-H522 lung): 1.21 µM
- TGI (NCI-H522 lung): 3 µM
- GI50 (IGROV1 ovarian): 0.527 µM
- TGI (IGROV1 ovarian): > 100 µM
- GI50 (OVCAR-4 ovarian): 5.78 µM
- TGI (OVCAR-4 ovarian): > 100 µM
- GI50 (HOP-92 NSCLC): 0.188 µM
- TGI (HOP-92 NSCLC): 0.713 µM
- GI50 (U251 CNS): 2.67 µM
- TGI (U251 CNS): > 100 µM
- GI50 (SR leukemia): 0.303 µM
- TGI (SR leukemia): 4.82 µM
- GI50 (LOX IMVI melanoma): 0.875 µM
- TGI (LOX IMVI melanoma): 27.1 µM
- GI50 (BT-549 breast): 1.7 µM
- TGI (BT-549 breast): 10.6 µM
- GI50 (SK-OV-3 ovarian): > 100 µM
- TGI (SK-OV-3 ovarian): > 100 µM
- GI50 (HL-60(TB) leukemia): 0.401 µM
- TGI (HL-60(TB) leukemia): 2.51 µM
- GI50 (HS 578T breast): 1.43 µM
- TGI (HS 578T breast): 7.03 µM
- GI50 (SN12C renal): 0.551 µM
- TGI (SN12C renal): > 100 µM
- GI50 (K-562 leukemia): 0.128 µM
- TGI (K-562 leukemia): > 100 µM
- GI50 (UACC-62 melanoma): 0.706 µM
- TGI (UACC-62 melanoma): > 100 µM
- GI50 (SF-268 CNS): 1.41 µM
- TGI (SF-268 CNS): 6.98 µM
- GI50 (CCRF-CEM leukemia): 0.389 µM
- TGI (CCRF-CEM leukemia): 3.61 µM
- GI50 (NCI-H460 lung): 3 µM
- TGI (NCI-H460 lung): > 100 µM
- GI50 (MALME-3M melanoma): 0.397 µM
- TGI (MALME-3M melanoma): 5.11 µM
- GI50 (HCC-2998 colon): 1.94 µM
- TGI (HCC-2998 colon): > 100 µM
- GI50 (SK-MEL-28 melanoma): 1.51 µM
- TGI (SK-MEL-28 melanoma): > 100 µM
- GI50 (A498 renal): > 100 µM
- TGI (A498 renal): > 100 µM
- GI50 (ACHN renal): 4.76 µM
- TGI (ACHN renal): > 100 µM
- GI50 (CAKI-1 renal): 0.501 µM
- TGI (CAKI-1 renal): 11.8 µM
- GI50 (NCI/ADR-RES ovarian): > 100 µM
- TGI (NCI/ADR-RES ovarian): > 100 µM
- GI50 (RPMI-8226 leukemia): 2.55 µM
- TGI (RPMI-8226 leukemia): 92.6 µM
- GI50 (SF-539 CNS): 0.552 µM
- TGI (SF-539 CNS): 7.35 µM
- GI50 (MCF7 breast): 0.31 µM
- TGI (MCF7 breast): 2.52 µM
- GI50 (MOLT-4 leukemia): 0.635 µM
- TGI (MOLT-4 leukemia): 6.71 µM
- GI50 (M14 melanoma): 1.1 µM
- TGI (M14 melanoma): 49.4 µM
- GI50 (OVCAR-3 ovarian): 2.51 µM
- TGI (OVCAR-3 ovarian): > 100 µM
- GI50 (RXF 393 renal): 1.14 µM
- TGI (RXF 393 renal): 3.32 µM
- GI50 (SK-MEL-2 melanoma): 0.427 µM
- TGI (SK-MEL-2 melanoma): 2.88 µM
- GI50 (DU-145 prostate): 1.18 µM
- TGI (DU-145 prostate): > 100 µM
- GI50 (MDA-MB-435): 1.49 µM
- TGI (MDA-MB-435): > 100 µM
- GI50 (A549 NSCLC): 5.34 µM
- TGI (A549 NSCLC): > 100 µM
- GI50 (UACC-257 melanoma): 3.98 µM
- TGI (UACC-257 melanoma): > 100 µM
- GI50 (SNB-75 CNS): 0.129 µM
- TGI (SNB-75 CNS): 1.76 µM
- GI50 (SF-295 CNS): 29.1 µM
- TGI (SF-295 CNS): > 100 µM
- GI50 (HCT-116 colon): 0.317 µM
- TGI (HCT-116 colon): 3.22 µM
- GI50 (HCT-15 colon): 5.84 µM
- TGI (HCT-15 colon): > 100 µM
- GI50 (OVCAR-5 ovarian): 1.79 µM
- TGI (OVCAR-5 ovarian): > 100 µM
- GI50 (786-0 renal): 2.01 µM
- TGI (786-0 renal): > 100 µM
- TGI (KM12 colon): 3.36 µM
- GI50 (SNB-19 CNS): 2.57 µM
- TGI (SNB-19 CNS): > 100 µM
- GI50 (SK-MEL-5 melanoma): 1.55 µM
- TGI (SK-MEL-5 melanoma): 10.5 µM
- GI50 (T-47D breast): 1.76 µM
- TGI (T-47D breast): > 100 µM
- GI50 (HT29 colon): 0.706 µM
- TGI (HT29 colon): > 100 µM
- GI50 (PC-3 prostate): 5.88 µM
- TGI (PC-3 prostate): > 100 µM
- GI50 (EKVX NSCLC): 2.35 µM
- TGI (EKVX NSCLC): > 100 µM
